Molecules are shown by their SMILES. A value given as a limit tells only on which side of the number the result lay.

The term IC50 denotes the concentration that inhibits the measured activity by half.

TEAD1 protein (YAP Binding Domain), sequence (P28347 209-426 limits assumed): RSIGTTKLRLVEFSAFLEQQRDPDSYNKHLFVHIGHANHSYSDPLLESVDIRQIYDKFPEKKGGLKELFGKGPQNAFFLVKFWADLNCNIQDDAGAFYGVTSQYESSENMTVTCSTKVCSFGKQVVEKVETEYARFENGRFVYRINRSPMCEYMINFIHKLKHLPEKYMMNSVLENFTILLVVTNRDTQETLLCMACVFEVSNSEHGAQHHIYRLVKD

This assay concerns the target TEAD1 protein (YAP Binding Domain) (Homo sapiens, UniProt P28347). The assay is described as follows: TEAD1 lipid pocket compound displacement assay (TR-FRET, Cy5-probe). Particulars: 60 minutes incubation at room temperature; TR-FRET 665 nm/620 nm; read-out: CDA IC50. How it is done:
Compound Displacement Assay.
A TEAD1 lipid pocket displacement assay was carried out according to the following protocol. Purified His-tagged TEAD1 protein (YAP Binding Domain) was pre-mixed with a Cy5-probe (Cy5-conjugated to a small molecule that binds in the TEAD1 lipid pocket) and Terbium-labeled anti-His antibody (Cisbio Cat 61HI2TLB). The binding of the Cy5-probe to anti-His-Tb/His-tag TEAD1 complex yielded a TR-FRET signal. […] After 60 minutes incubation at room temperature of compounds with the His-TEAD1/anti-His-Tb/Cy5-probe complex, the plate was read on a plate reader (BMG ClarioStar Cat 430-1300) using TR-FRET mode with wavelengths of 665 nm/620 nm. The potency of compounds as TEAD1 lipid pocket binders was determined by IC50 value generated using a non-linear 4 parameter curve fit.
`C=CC(=O)Nc1ccc(OCc2cccc(F)c2)cc1C` [Compound 47, N-(4-((3-fluorobenzyl)oxy)-2-methylphenyl)acrylamide]: the IC50 lay in the range of 500 to 2000 nM.

Take `C=CC(=O)Nc1ccc(OCc2ccccc2)c(F)c1` [Compound 52, N-(4-(benzyloxy)-3-fluorophenyl)acrylamide]: the half-maximal inhibitory concentration (IC50) fell in the range of 250 to 500 nM.

For the compound `C=CC(=O)Nc1ccc(OCc2cnccc2Cl)c(F)c1` [Compound 57, N-(4-((4-chloropyridin-3-yl)methoxy)-3-fluorophenyl)acrylamide], the IC50 is over 2000 nM.

Consider `C=CC(=O)Nc1ccc(OCc2cc(OC)ccc2Cl)c(F)c1` [Compound 88, N-(4-((2-chloro-5-methoxybenzyl)oxy)-3-fluorophenyl)acrylamide], for which the IC50 fell in the range of 250 to 500 nM.

As to `C=CC(=O)Nc1ccc(OCc2cccc(F)c2)c(C2CC2)c1` [Compound 2, N-(3-cyclopropyl-4-((3-fluorobenzyl)oxy)phenyl)acrylamide], the IC50 lay within 250 to 500 nM.

On to `C=CC(=O)Nc1ccc(OCc2ccc(C)nc2)c(F)c1` [Compound 69, N-(3-fluoro-4-((6-methylpyridin-3-yl)methoxy)phenyl)acrylamide], for which the IC50 is over 2000 nM.

As for `C=CC(=O)Nc1ccc2c(c1)N(C)CC(c1cccc(F)c1)O2` (stereo not shown) [Compound 12, N-(2-(3-fluorophenyl)-4-methyl-3,4-dihydro-2H-benzo[b][1,4]oxazin-6-yl)acrylamide], the IC50 was over 2000 nM.

`C=CC(=O)Nc1ccc2c(c1)CCC(c1cccc(F)c1)O2` (stereo not shown) [Compound 5, N-(2-(3-fluorophenyl)chroman-6-yl)acrylamide]: the IC50 was over 2000 nM.

For `C=CC(=O)Nc1ccc(OCc2cnc(C)s2)c(F)c1` [Compound 64, N-(3-fluoro-4-((2-methylthiazol-5-yl)methoxy)phenyl)acrylamide], the IC50 is over 2000 nM.

Take `C=CC(=O)Nc1ccc(C2COc3ccccc3C2=O)c(F)c1` (stereo not shown) [Compound 131, N-(3-fluoro-4-(4-oxochroman-3-yl)phenyl)acrylamide]: the IC50 was 500 to 2000 nM.

On to `C=CC(=O)Nc1ccc(OCc2cc(C(=O)OC)ccc2Cl)c(F)c1` [Compound 87, methyl 3-((4-acrylamido-2-fluorophenoxy)methyl)-4-chlorobenzoate], for which the IC50 was 500 to 2000 nM.

As to `O=C(O)c1ccc(OCC2CCC(F)(F)CC2)c(F)c1` [Compound 35, 4-((4,4-difluorocyclohexyl)methoxy)-3-fluorobenzoic acid], the IC50 fell in the range of 250 to 500 nM.

Take `C=CC(=O)Nc1ccc(OCCCC(F)(F)F)c(F)c1` [Compound 94, N-(3-fluoro-4-(4,4,4-trifluorobutoxy)phenyl)acrylamide]: the IC50 was 500 to 2000 nM.

`C=CC(=O)Nc1ccc(OCc2ccc(C(=O)OC)s2)c(F)c1` [Compound 62, methyl 5-((4-acrylamido-2-fluorophenoxy)methyl)thiophene-2-carboxylate]: the IC50 is 500 to 2000 nM.

With `C=CC(=O)Nc1ccc(OCc2ccc(C#N)cc2Cl)c(F)c1` [Compound 77, N-(4-((2-chloro-4-cyanobenzyl)oxy)-3-fluorophenyl)acrylamide], the IC50 was over 2000 nM.

Take `C=CC(=O)Nc1ccc(OCc2cccc(C)c2)c(F)c1` [Compound 93, N-(3-fluoro-4-((3-methylbenzyl)oxy)phenyl)acrylamide]: the IC50 was at most 250 nM.

Regarding `C=CC(=O)Nc1ccc2c(c1)OCC(c1cccc(F)c1)O2` (stereo not shown) [Compound 8, N-(2-(3-fluorophenyl)-2,3-dihydrobenzo[b][1,4]dioxin-6-yl)acrylamide], the IC50 is 250 to 500 nM.

On to `C=CC(=O)Nc1ccc(NC(=O)C2CCC(F)(F)CC2)c(F)c1` [Compound 32, N-(4-acrylamido-2-fluorophenyl)-4,4-difluorocyclohexanecarboxamide], for which the IC50 is at most 250 nM.

As to `C=CC(=O)Nc1ccc(OCc2cccc(C#N)c2)c(F)c1` [Compound 92, N-(4-((3-cyanobenzyl)oxy)-3-fluorophenyl)acrylamide], the IC50 was 500 to 2000 nM.

Turning to `C=CC(=O)Nc1ccc(OCc2cccc(F)c2)cc1Cc1ccncc1` [Compound 13, N-(4-((3-fluorobenzyl)oxy)-2-(pyridin-4-ylmethyl)phenyl)acrylamide], the IC50 is over 2000 nM.

Turning to `C=CC(=O)Nc1ccc(OCc2c(F)cccc2Cl)c(F)c1` [Compound 85, N-(4-((2-chloro-6-fluorobenzyl)oxy)-3-fluorophenyl)acrylamide], the IC50 is over 2000 nM.

For the compound `C=CC(=O)Nc1ccc(OCc2cccc(F)c2)cc1CC1CC1` [Compound 16, N-(2-(cyclopropylmethyl)-4-((3-fluorobenzyl)oxy)phenyl)acrylamide], the IC50 was over 2000 nM.

As for `C=CC(=O)Nc1ccc(N(Cc2ccncc2)Cc2cccc(F)c2)c(F)c1` [Compound 18, N-(3-fluoro-4-((3-fluorobenzyl)(pyridin-4-ylmethyl)amino)phenyl)acrylamide], the IC50 is over 2000 nM.

Take `C=CC(=O)Nc1ccc(OCC2CCC(F)(F)CC2)c(C)c1` [Compound 48, N-(4-((4,4-difluorocyclohexyl)methoxy)-3-methylphenyl)acrylamide]: the IC50 was at most 250 nM.

For `C=CC(=O)Nc1ccc(OC(C)C2CCC(F)(F)CC2)c(F)c1` (stereo not shown) [Compound 30, N-(4-(1-(4,4-difluorocyclohexyl)ethoxy)-3-fluorophenyl)acrylamide], the IC50 is 250 to 500 nM.

In the case of `C=CC(=O)Nc1ccc(OCc2ccncc2)c(F)c1` [Compound 66], the IC50 was over 2000 nM.

Regarding `C=CC(=O)Nc1ccc(OCc2c(Cl)cccc2Cl)c(F)c1` [Compound 86, N-(4-((2,6-dichlorobenzyl)oxy)-3-fluorophenyl)acrylamide], the IC50 is over 2000 nM.

Regarding `C=CC(=O)Nc1ccc(OCc2cccc(F)c2)c2c1CCCO2` [Compound 14, N-(8-((3-fluorobenzyl)oxy)chroman-5-yl)acrylamide], the IC50 was over 2000 nM.

As for `C=CC(=O)Nc1ccc(OCc2cccc(F)c2F)c(F)c1` [Compound 95, N-(4-((2,3-difluorobenzyl)oxy)-3-fluorophenyl)acrylamide], the IC50 lay in the range of 250 to 500 nM.

As for `C=CC(=O)Nc1ccc(OCc2cccc(F)c2)c2c1CCCC2` [Compound 15, N-(4-((3-fluorobenzyl)oxy)-5,6,7,8-tetrahydronaphthalen-1-yl)acrylamide], the IC50 is 250 to 500 nM.

`C=CC(=O)Nc1ccc(OCc2ccc(C(F)(F)F)cc2Cl)c(F)c1` [Compound 81, N-(4-((2-chloro-4-(trifluoromethyl)benzyl)oxy)-3-fluorophenyl)acrylamide]: the IC50 is over 2000 nM.

As for `C#Cc1cccc(COc2ccc(NC(=O)C=C)cc2F)c1` [Compound 25, N-(4-((3-ethynylbenzyl)oxy)-3-fluorophenyl)acrylamide], the IC50 was in the range of 250 to 500 nM.

`C=CC(=O)Nc1ccc(OCc2ccc(Br)nc2)c(F)c1` [Compound 68, N-(4-((6-bromopyridin-3-yl)methoxy)-3-fluorophenyl)acrylamide]: the IC50 lay within 500 to 2000 nM.

`C=CC(=O)Nc1ccc(OCc2ccc(C(=O)OC)nc2)c(F)c1` [Compound 70, methyl 5-((4-acrylamido-2-fluorophenoxy)methyl)picolinate]: the IC50 is over 2000 nM.

Regarding `C=CC(=O)Nc1ccc(N(Cc2cccc(F)c2)CC2CC2)c(F)c1` [Compound 17, N-(4-((cyclopropylmethyl)(3-fluorobenzyl)amino)-3-fluorophenyl)acrylamide], the IC50 is at most 250 nM.

Consider `C=CC(=O)Nc1ccc(OCc2cccc(Cl)c2)c(F)c1` [Compound 90, N-(4-((3-chlorobenzyl)oxy)-3-fluorophenyl)acrylamide], for which the IC50 is at most 250 nM.

With `C=CC(=O)Nc1ccc(OC(C)c2ccccc2Cl)c(F)c1` (stereo not shown) [Compound 123, N-(4-(1-(2-chlorophenyl)ethoxy)-3-fluorophenyl)acrylamide], the IC50 lay in the range of 500 to 2000 nM.

In the case of `O=C(O)c1ccc(F)c(OCC2CCC(F)(F)CC2)c1` [Compound 36, 3-((4,4-difluorocyclohexyl)methoxy)-4-fluorobenzoic acid], the IC50 is 250 to 500 nM.

With `C=CC(=O)Nc1ccc(OCc2cccc(F)c2)c(Cl)c1` [Compound 46, N-(3-chloro-4-((3-fluorobenzyl)oxy)phenyl)acrylamide], the IC50 is at most 250 nM.

On to `C=CC(=O)Nc1ccc(OCc2cccc(F)c2)cc1` [Compound 44, N-(4-((3-fluorobenzyl)oxy)phenyl)acrylamide], for which the concentration for half-maximal inhibition (IC50) is over 2000 nM.

In the case of `C=CC(=O)Nc1ccc(OCc2cccnc2)c(F)c1` [Compound 56, N-(3-fluoro-4-(pyridin-3-ylmethoxy)phenyl)acrylamide], the IC50 was over 2000 nM.

As for `C=CC(=O)Nc1ccc(C2CCc3ccccc3C2)c(F)c1` (stereo not shown) [Compound 119, N-(3-fluoro-4-(1,2,3,4-tetrahydronaphthalen-2-yl)phenyl)acrylamide], the IC50 lay within 500 to 2000 nM.

`C=CC(=O)Nc1ccc(OCc2cccc(F)c2)c(C#N)c1` [Compound 130, N-(3-cyano-4-((3-fluorobenzyl)oxy)phenyl)acrylamide]: the IC50 is 500 to 2000 nM.

Turning to `C=CC(=O)Nc1ccc(OCc2cc(F)cc(F)c2)c(F)c1` [Compound 97, N-(4-((3,5-difluorobenzyl)oxy)-3-fluorophenyl)acrylamide], the IC50 is 250 to 500 nM.

As to `O=C(NS(=O)(=O)C1CC1)c1ccc(OCC2CCC(F)(F)CC2)c(F)c1` [Compound 37, N-(cyclopropylsulfonyl)-4-((4,4-difluorocyclohexyl)methoxy)-3-fluorobenzamide], the IC50 fell in the range of 500 to 2000 nM.

For `C=CC(=O)Nc1ccc(OCc2cccc(F)c2)cc1C1CC1` [Compound 4, N-(2-cyclopropyl-4-((3-fluorobenzyl)oxy)phenyl)acrylamide], the IC50 fell in the range of 250 to 500 nM.

The values above are taken from patent US20230115350A1 (Cedilla Therapeutics, Inc., priority 2021, published 2023).
